Data as given in patent publication US8404681B2, “Xanthones, thioxanthones and acridinones as DNA-PK inhibitors” (Luitpold Pharmaceuticals, Inc., priority 2003, dated 2013).

Columns and labels:
DNA-PK = molecular target: T1, DNA-PK (Homo sapiens, UniProt P78527); assay: Standard DNA-PK assay (phosphorylation of p53 peptide substrate); assay type: biochemical; conditions: purified human DNA-PK, 50 μM ATP, room temperature, read-out: IC50 (inhibition of DNA-PK enzyme activity)
T1 construct: HeLa S3 cells (ATCC CCL-2.2; Batch F12594) were raised in MEM-Joklik media; endogenous in cells; host or cells: HeLa S3 cells (ATCC CCL-2.2); Endogenous enzyme purified in house: S100-2 fraction, then Q-Sepharose FF, then SP-Sepharose FF, giving fraction IV
Experimental: Reactions were carried out at room temperature. Reactions were started by addition of ATP and stopped by application to phosphocellulose paper. Reaction products spotted onto phosphocellulose paper were washed five times with a total volume of at least 250 mL 10% acetic acid or 150 mM phosphoric acid. The paper was air dried and radioactivity was determined in a Beckman LS6000IC scintillation counter.

[1] = test system: MDA-MB231 (human breast carcinoma) cells; assay: DNA double-strand break repair assay (pulse field gel electrophoresis after irradiation); assay type: cell-based; conditions: 25 Gy, at concentrations which enhanced radiation induced cell killing
Experimental: To further determine the cellular effect of DNA-PK inhibitors, an assay to measure chromosomal discontinuities was employed. Ionizing radiation induces chromosomal DNA double-strand breaks. Following high dose radiation, chromosomes can be extracted from cells and fractionated by pulse field electrophoresis to distinguish chromosomal fragments from intact larger chromosomes. Using this technique, the activity of DNA-PK inhibitors was measured.
MDA-MB231 (human breast carcinoma) cells were seeded onto T25 flasks with RPMI1640+10% FBS, 2 mM L-glutamine, penicillin G 100 U/ml-streptomycin sulfate 10 μg/ml, 1 mM Na pyruvate. When confluent, media was removed and replaced with media containing DNA-PK inhibitor or vehicle. Cells were incubated at 37° C. for 1 hr in a humidified chamber with 5% CO2. Media then was removed and flasks were filled with ice-cold D-PBS and either: (a) processed immediately; (b) irradiated (25 Gy in a ^137Cs Mark I irradiator at a flux of 335 rad/min) and processed immediately; (c) irradiated and incubated for 2 hr in complete RPMI1640+vehicle at 37° C. (in humidified 5% CO2 atmosphere to allow for DNA repair), or (d) irradiated and incubated for 2 hr in complete RPMI1640+DNA-PK inhibitor compound. […] Chromosomal DNA was visualized with SYBR-Gold (Molecular probes #S-11494) and the fluorescent image quantified on the STORM 860 (Molecular Dynamics).

[2] = test system: human colorectal carcinoma cell line, HCT-116; assay: Radiation enhancement cellular proliferation assay (3H thymidine incorporation); assay type: cell-based; conditions: HCT-116 cells, γ-radiation at doses up to 800 rads
Experimental: To measure the ability of present DNA-PK inhibitor compounds to enhance the toxic effect of radiation treatment, the human colorectal carcinoma cell line, HCT-116, was incubated with inhibitor compounds at concentrations up to 50 μM and treated with γ-radiation at doses up to 800 rads. Cells were maintained in RPMI 1640 (Gibco) containing 10% […], 1 mM sodium pyruvate, 2 mM L-glutamine, 100 U/mL penicillin, and 100 μg/mL streptomycin at 37° C. with 5% CO2 in a humidified incubator. Cultured cells were trypsinized, counted, and seeded into 96 well plates at a concentration of 1000 cells/well. Cells were incubated with varying concentrations of the inhibitor compounds from 1.8 μM to 50 μM for 10 hr or 5 days, then the media-containing compounds were removed and replaced With fresh media without drug. After five days, ^3H thymidine (1 μCi/well) was added to each well and incubated for an additional 20 hr. The plates were frozen at −70° C. for at least 2 hr and thawed at 37° C. to lyse the cells. DNA was harvested onto glass fiber filters and ^3H thymidine incorporation determined with a Packard Matrix 96 direct beta counter. Compound dependent potentiation of radiation induced cell killing was determined by comparing the effect of radiation alone and radiation plus inhibitor compound.

O=c1c2ccccc2n(Cc2ccccc2)c2cc(N3CCOCC3)cc(O)c12 [Example 28, 10-Benzyl-1-hydroxy-3-morpholin-4-yl-10H-acridin-9-one]
IC50 (DNA-PK): 20 nM | DNA double-strand break repair [1]: inhibited DNA double-strand break repair | concentration that enhanced radiation induced cell killing 2-fold [2]: 17.5 µM
